# Measured values from ChEMBL document CHEMBL4699665, “Discovery of ANT3310, a Novel Broad-Spectrum Serine β-Lactamase Inhibitor of the Diazabicyclooctane Class, Which Strongly Potentiates Meropenem Activity against Carbapenem-Resistant Enterobacterales and Acinetobacter baumannii” (J Med Chem, 2020).
# System: Enterobacter cloacae
# Experiment: Potentiation of meropenem-induced antibacterial activity against Enterobacter cloacae expressing TEM-1/KPC-2 assessed as meropenem MIC at 4 ug/ml by broth microdilution method (reference value: 8 ug/ml)
# Assay type: functional
# Details: dose 4 µg/ml
row,Structure (SMILES),MIC [µg/mL]
1,CC(F)(F)[C@@H]1CC[C@@H]2CN1C(=O)N2OS(=O)(=O)[O-].[Na+],0.06
2,O=C1N2C[C@@H](CC[C@H]2C(F)F)N1OS(=O)(=O)[O-].[Na+],0.06
3,NC(=O)[C@@H]1CC[C@@H]2CN1C(=O)N2OS(=O)(=O)O [AVIBACTAM],0.03

# System: Enterobacter cloacae
# Experiment: Antibacterial activity against Enterobacter cloacae expressing TEM-1/KPC-2 by broth microdilution method
# Assay type: functional
# Details: not given
row,Structure (SMILES),MIC [µg/mL]
1,NC(=O)[C@@H]1CC[C@@H]2CN1C(=O)N2OS(=O)(=O)O [AVIBACTAM],16

# System: not listed separately
# Experiment: Clearance in rat at 1 mg/kg, iv
# Assay type: ADME, organism-based
# Details: in vivo
row,Structure (SMILES),clearance [mL/min/kg]
1,NC(=O)[C@@H]1CC[C@@H]2CN1C(=O)N2OS(=O)(=O)O [AVIBACTAM],59

# System: not listed separately
# Experiment: AUC in rat at 1 mg/kg, iv
# Assay type: ADME, organism-based
# Parameters: dose 1 mg/kg
# Details: in vivo
row,Structure (SMILES),AUC [ng·h/mL]
1,NC(=O)[C@@H]1CC[C@@H]2CN1C(=O)N2OS(=O)(=O)O [AVIBACTAM],279

# Target: not listed separately
# Experiment: Inhibition of beta lactamase CTXM-15 in Enterobacter cloacae assessed as decrease in enzyme activity using nitrocefin as substrate preincubated for 10 mins followed by substrate addition measured for 10 mins by fluorescence plate reader analysis
# Details: not given
row,Structure (SMILES),IC50 [µM]
1,CC(F)(F)[C@@H]1CC[C@@H]2CN1C(=O)N2OS(=O)(=O)[O-].[Na+],0.2
2,O=C1N2C[C@@H](CC[C@H]2C(F)F)N1OS(=O)(=O)[O-].[Na+],0.017
3,NC(=O)[C@@H]1CC[C@@H]2CN1C(=O)N2OS(=O)(=O)O [AVIBACTAM],0.001

# System: Acinetobacter baumannii
# Experiment: Antibacterial activity against Acinetobacter baumannii expressing OXA-23 by broth microdilution method
# Assay type: functional
# Details: not given
row,Structure (SMILES),MIC [µg/mL]
1,NC(=O)[C@@H]1CC[C@@H]2CN1C(=O)N2OS(=O)(=O)O [AVIBACTAM],> 128

# System: Klebsiella pneumoniae
# Experiment: Antibacterial activity against Klebsiella pneumoniae expressing SHV-11/OXA-181 by broth microdilution method
# Assay type: functional
# Details: not given
row,Structure (SMILES),MIC [µg/mL]
1,NC(=O)[C@@H]1CC[C@@H]2CN1C(=O)N2OS(=O)(=O)O [AVIBACTAM],32

# System: Klebsiella pneumoniae
# Experiment: Antibacterial activity against Klebsiella pneumoniae expressing TEM-OSBL/CTX-M-14/OXA-48 by broth microdilution method
# Assay type: functional
# Details: not given
row,Structure (SMILES),MIC [µg/mL]
1,NC(=O)[C@@H]1CC[C@@H]2CN1C(=O)N2OS(=O)(=O)O [AVIBACTAM],16

# System: Acinetobacter baumannii
# Experiment: Potentiation of meropenem-induced antibacterial activity against Acinetobacter baumannii expressing OXA-23 assessed as meropenem MIC at 4 ug/ml by broth microdilution method (reference value: 32 ug/ml)
# Assay type: functional
# Details: dose 4 µg/ml
row,Structure (SMILES),MIC [µg/mL]
1,CC(F)(F)[C@@H]1CC[C@@H]2CN1C(=O)N2OS(=O)(=O)[O-].[Na+],32
2,O=C1N2C[C@@H](CC[C@H]2C(F)F)N1OS(=O)(=O)[O-].[Na+],16
3,NC(=O)[C@@H]1CC[C@@H]2CN1C(=O)N2OS(=O)(=O)O [AVIBACTAM],16

# Target: not listed separately
# Experiment: Inhibition of beta lactamase TEM-1 in Enterobacter cloacae assessed as decrease in enzyme activity using nitrocefin as substrate preincubated for 10 mins followed by substrate addition measured for 10 mins by fluorescence plate reader analysis
# Details: not given
row,Structure (SMILES),IC50 [µM]
1,CC(F)(F)[C@@H]1CC[C@@H]2CN1C(=O)N2OS(=O)(=O)[O-].[Na+],0.267
2,O=C1N2C[C@@H](CC[C@H]2C(F)F)N1OS(=O)(=O)[O-].[Na+],0.208
3,NC(=O)[C@@H]1CC[C@@H]2CN1C(=O)N2OS(=O)(=O)O [AVIBACTAM],0.005

# Target: not listed separately
# Experiment: Inhibition of beta lactamase OXA-48 in Enterobacter cloacae assessed as decrease in enzyme activity using nitrocefin as substrate preincubated for 10 mins followed by substrate addition measured for 10 mins by fluorescence plate reader analysis
# Details: not given
row,Structure (SMILES),IC50 [µM]
1,CC(F)(F)[C@@H]1CC[C@@H]2CN1C(=O)N2OS(=O)(=O)[O-].[Na+],0.169
2,O=C1N2C[C@@H](CC[C@H]2C(F)F)N1OS(=O)(=O)[O-].[Na+],0.064
3,NC(=O)[C@@H]1CC[C@@H]2CN1C(=O)N2OS(=O)(=O)O [AVIBACTAM],0.252

# System: Klebsiella pneumoniae
# Experiment: Potentiation of meropenem-induced antibacterial activity against Klebsiella pneumoniae expressing SHV-11/OXA-121 assessed as meropenem MIC at 4 ug/ml by broth microdilution method (reference value: 16 ug/ml)
# Assay type: functional
# Details: dose 4 µg/ml
row,Structure (SMILES),MIC [µg/mL]
1,CC(F)(F)[C@@H]1CC[C@@H]2CN1C(=O)N2OS(=O)(=O)[O-].[Na+],16
2,O=C1N2C[C@@H](CC[C@H]2C(F)F)N1OS(=O)(=O)[O-].[Na+],1
3,NC(=O)[C@@H]1CC[C@@H]2CN1C(=O)N2OS(=O)(=O)O [AVIBACTAM],1

# Target: not listed separately
# Experiment: Inhibition of beta lactamase KPC-2 in Enterobacter cloacae assessed as decrease in enzyme activity using nitrocefin as substrate preincubated for 10 mins followed by substrate addition measured for 10 mins by fluorescence plate reader analysis
# Details: not given
row,Structure (SMILES),IC50 [µM]
1,CC(F)(F)[C@@H]1CC[C@@H]2CN1C(=O)N2OS(=O)(=O)[O-].[Na+],0.043
2,O=C1N2C[C@@H](CC[C@H]2C(F)F)N1OS(=O)(=O)[O-].[Na+],0.007
3,NC(=O)[C@@H]1CC[C@@H]2CN1C(=O)N2OS(=O)(=O)O [AVIBACTAM],0.008

# System: not listed separately
# Experiment: Volume of distribution in rat at 1 mg/kg, iv
# Assay type: ADME, organism-based
# Details: in vivo
row,Structure (SMILES),Vd [L/kg]
1,NC(=O)[C@@H]1CC[C@@H]2CN1C(=O)N2OS(=O)(=O)O [AVIBACTAM],1.9

# System: not listed separately
# Experiment: Half life in rat at 1 mg/kg, iv
# Assay type: ADME, organism-based
# Details: in vivo
row,Structure (SMILES),half-life [min]
1,NC(=O)[C@@H]1CC[C@@H]2CN1C(=O)N2OS(=O)(=O)O [AVIBACTAM],22.2

# System: Klebsiella pneumoniae
# Experiment: Antibacterial activity against Klebsiella pneumoniae expressing TEM-1/SHV-11/KPC-3 by broth microdilution method
# Assay type: functional
# Details: not given
row,Structure (SMILES),MIC [µg/mL]
1,NC(=O)[C@@H]1CC[C@@H]2CN1C(=O)N2OS(=O)(=O)O [AVIBACTAM],16

# System: Klebsiella pneumoniae
# Experiment: Potentiation of meropenem-induced antibacterial activity against Klebsiella pneumoniae expressing TEM-OSBL/CTX-M-14/OXA-48 assessed as meropenem MIC at 4 ug/ml by broth microdilution method (reference value: 16 ug/ml)
# Assay type: functional
# Details: dose 4 µg/ml
row,Structure (SMILES),MIC [µg/mL]
1,CC(F)(F)[C@@H]1CC[C@@H]2CN1C(=O)N2OS(=O)(=O)[O-].[Na+],8
2,O=C1N2C[C@@H](CC[C@H]2C(F)F)N1OS(=O)(=O)[O-].[Na+],2
3,NC(=O)[C@@H]1CC[C@@H]2CN1C(=O)N2OS(=O)(=O)O [AVIBACTAM],0.5

# Target: not listed separately
# Experiment: Inhibition of bacteria beta lactamase OXA-23 assessed as decrease in enzyme activity using nitrocefin as substrate preincubated for 10 mins followed by substrate addition measured for 10 mins by fluorescence plate reader analysis
# Details: not given
row,Structure (SMILES),IC50 [µM]
1,CC(F)(F)[C@@H]1CC[C@@H]2CN1C(=O)N2OS(=O)(=O)[O-].[Na+],> 3
2,O=C1N2C[C@@H](CC[C@H]2C(F)F)N1OS(=O)(=O)[O-].[Na+],1.6
3,NC(=O)[C@@H]1CC[C@@H]2CN1C(=O)N2OS(=O)(=O)O [AVIBACTAM],> 3

# Target: not listed separately
# Experiment: Inhibition of beta lactamase AmpC in Enterobacter cloacae assessed as decrease in enzyme activity using nitrocefin as substrate preincubated for 10 mins followed by substrate addition measured for 10 mins by fluorescence plate reader analysis
# Details: not given
row,Structure (SMILES),IC50 [µM]
1,CC(F)(F)[C@@H]1CC[C@@H]2CN1C(=O)N2OS(=O)(=O)[O-].[Na+],0.313
2,O=C1N2C[C@@H](CC[C@H]2C(F)F)N1OS(=O)(=O)[O-].[Na+],0.035
3,NC(=O)[C@@H]1CC[C@@H]2CN1C(=O)N2OS(=O)(=O)O [AVIBACTAM],0.008

# System: Klebsiella pneumoniae
# Experiment: Potentiation of meropenem-induced antibacterial activity against Klebsiella pneumoniae expressing TEM-1/SHV-11/KPC-3 assessed as meropenem MIC at 4 ug/ml by broth microdilution method (reference value: 128 ug/ml)
# Assay type: functional
# Details: dose 4 µg/ml
row,Structure (SMILES),MIC [µg/mL]
1,CC(F)(F)[C@@H]1CC[C@@H]2CN1C(=O)N2OS(=O)(=O)[O-].[Na+],2
2,O=C1N2C[C@@H](CC[C@H]2C(F)F)N1OS(=O)(=O)[O-].[Na+],1
3,NC(=O)[C@@H]1CC[C@@H]2CN1C(=O)N2OS(=O)(=O)O [AVIBACTAM],0.25
